# US20040191842A1, “Chemopreventive and therapeutic aspects of polyphenolic compositions and assays” (Medical College of Georgia Research Institute, Inc., priority 2002, published 2004)
# System: MCF7 cells
# Experiment: Morphological analysis, MCF7 cells
# Format: cell-based, human
# Details: EGCG, 48 hours, vs 24 hour control
# Excerpt: Cell lines and cell culture. The normal human keratinocytes (NHEK CC-2507) were purchased from Cambrex (East Rutherford, N.J.) and maintained in KGM-2 medium (Cambrex). The OSC2 cell line was previously described (Osaki et al., Eur J Cancer B Oral Oncol 1994; 30 B:296-301). The breast carcinoma MCF7 cell line was purchased from American Type Culture Collection. The MCF7(C) caspase+cell line “7-3-28 ” was established and tested as previously described (Janicke et al., J Biol Chem 1998; 273:9357-60, Blanc et al., Cancer Res 2000; 60:4386-90). These tumor cells were maintained in 45% Dulbecco's Modified Eagle's Medium (DMEM), 45% Ham's F12 medium and 10% fetal calf serum, 100 I.U/ml penicillin, 100 μg/ml streptomycin and 5 μg/ml hydrocortisone. All cell cultures were maintained in a 37° C. incubator with 5% CO2. Light microscopic photographs were taken with a SPOT RT digital camera system (Diagnostic Instruments) linked to a Nikon Phase Contrast-2 microscope at an original magnification of 200×.
structure (smiles),measurement,value
"O=C(O[C@@H]1Cc2c(O)cc(O)cc2O[C@@H]1c1cc(O)c(O)c(O)c1)c1cc(O)c(O)c(O)c1 [EGCG, (−)-epigallocatechin-3-gallate]",cell density,increased cell density was observed
